The record followed here is ChEMBL document CHEMBL5344409, “Discovery of pan-IAP degraders via a CRBN recruiting mechanism” (2023).

As a reminder, the GI50 is the concentration at which growth is held to half of that of the control.

Test [1] addresses Baculoviral IAP repeat-containing protein 2 (Homo sapiens) (UniProt Q13490). The test can be described thus: Induction of cIAP1 degradation in human MCF7 cells at 0.1 uM measured after 18 hrs by western blot analysis. The format is cell-based.
Test [2] has as its target T1, Protein cereblon/Baculoviral IAP repeat-containing protein 3 (Homo sapiens) (UniProt Q13489+Q96SW2). The test can be described thus: PROTAC activity at CRBN/cIAP2 in human MCF7 cells assessed as induction of cIAP2 degradation at 0.1 uM measured after 18 hrs by western blot analysis. The format is cell-based. In general terms: Immunoblotting shows a protein as a band on a membrane.

For test [3], the target named is Protein cereblon (Homo sapiens) (UniProt Q96SW2). In words: Induction of CRBN degradation in human MCF7 cells by western blot analysis. It is filed as cell-based.
For test [4], the target named is T2, Protein cereblon/E3 ubiquitin-protein ligase XIAP (Homo sapiens) (UniProt P98170+Q96SW2). The test can be described thus: PROTAC activity at CRBN/XIAP in human MCF7 cells assessed as induction of XIAP degradation at 1 uM measured after 18 hrs by western blot analysis. The format is cell-based.
The target of test [5] is T1, Protein cereblon/Baculoviral IAP repeat-containing protein 3 (Homo sapiens). In words: PROTAC activity at CRBN/cIAP2 in human MCF7 cells assessed as induction of cIAP2 degradation at 1 uM measured after 18 hrs by western blot analysis. It is filed as cell-based.
In test [6] the target is T2, Protein cereblon/E3 ubiquitin-protein ligase XIAP (Homo sapiens). In words: PROTAC activity at CRBN/XIAP in human MCF7 cells assessed as induction of XIAP degradation at 0.1 uM measured after 18 hrs by western blot analysis. The format is cell-based.
For test [7], the target named is Baculoviral IAP repeat-containing protein 2 (Homo sapiens) (UniProt Q13490). The test can be described thus: Induction of cIAP1 degradation in human MCF7 cells at 1 uM measured after 18 hrs by western blot analysis. The format is cell-based.
Test [8] concerns the target T3, Protein cereblon-IAP (Homo sapiens) (UniProt P98170+Q13489+Q13490+Q96SW2). The test can be described thus: PROTAC activity at CRBN/IAP in human MCF7 cells assessed as inhibition of TNFalpha-induced NFkappaB activation by measuring decrease in p38 phosphorylation at 0.1 uM pretreated for 2 hrs followed by stimulation with TNF-alpha for 3 mins by western blot analysis. Particulars: time 123.0 min. It is filed as cell-based.

The target of test [9] is Baculoviral IAP repeat-containing protein 3 (Homo sapiens) (UniProt Q13489). The test can be described thus: Induction of cIAP2 degradation in human MCF7 cells by western blot analysis. The format is cell-based.
The next test deals with SK-OV-3. The test can be described thus: Cytotoxicity against human SK-OV-3 cells assessed as inhibition of cell growth measured after 72 hrs by CellTiter-Glo luminescent assay. The format is functional, cell-based. Background: Cellular ATP, detected with luciferase, serves as a proxy for viable cell number.
Test [10] concerns MCF7. In words: Induction of apoptosis in human MCF7 cells assessed as increase in total apoptotic cells at 1 uM measured after 48 hrs by AnnexinV-FITC/PI staining based flow cytometry. The format is functional.
Test [11] relates to MDA-MB-231. The test can be described thus: Inhibition of TNFalpha-induced cell migration in human MDA-MB-231 cells at 0.1 uM measured after 24 hrs in presence of TNFalpha by transwell assay. The format is functional, cell-based.
The target in test [12] is T3, Protein cereblon-IAP (Homo sapiens). The test can be described thus: PROTAC activity at CRBN/IAP in human MCF7 cells assessed as inhibition of TNFalpha-induced NFkappaB activation by measuring decrease in IKKalpha/beta phosphorylation at 0.1 uM pretreated for 2 hrs followed by stimulation with TNF-alpha for 3 mins by western blot analysis. The format is cell-based. Particulars: time 123.0 min.

Test [13] deals with MDA-MB-157. In words: Inhibition of TNFalpha-induced cell invasion in human MDA-MB-157 cells at 0.1 uM measured after 24 hrs in presence of TNFalpha by transwell assay. It is filed as functional, cell-based.
Test [14] deals with MCF7. The test can be described thus: Cytotoxicity against human MCF7 cells assessed as inhibition of cell growth measured after 72 hrs by CellTiter-Glo luminescent assay. It is filed as functional.
In test [15] the test system is MDA-MB-157. The test can be described thus: Inhibition of TNFalpha-induced cell migration in human MDA-MB-157 cells at 0.1 uM measured after 24 hrs in presence of TNFalpha by transwell assay. It is filed as functional, cell-based.
For test [16], the system named is MCF7. In words: Induction of apoptosis in human MCF7 cells assessed as increase in PARP cleavage at 0.1 uM measured after 18 hrs by western blot analysis. It is filed as functional, cell-based.
In test [17] the target is T3, Protein cereblon-IAP (Homo sapiens). In words: PROTAC activity at CRBN/IAP in human MCF7 cells assessed as inhibition of TNFalpha-induced NFkappaB activation by measuring decrease in IkBalpha phosphorylation at 0.1 uM pretreated for 2 hrs followed by stimulation with TNF-alpha for 3 mins by western blot analysis. It is filed as cell-based. To be noted: time 123.0 min.

Test [18] has the same target. The test can be described thus: PROTAC activity at CRBN/IAP in human MCF7 cells assessed as inhibition of TNFalpha-induced NFkappaB activation by measuring decrease in p65 phosphorylation at 0.1 uM pretreated for 2 hrs followed by stimulation with TNF-alpha for 3 mins by western blot analysis. The format is cell-based. To be noted: time 123.0 min.
Test [19] has as its system MCF7. The test can be described thus: Induction of apoptosis in human MCF7 cells assessed as increase in caspase 7 cleavage at 0.1 uM measured after 18 hrs by western blot analysis. The format is functional, cell-based.
In test [20] the target is Baculoviral IAP repeat-containing protein 2 (Homo sapiens) (UniProt Q13490). The test can be described thus: Induction of cIAP1 degradation in human MCF7 cells by western blot analysis. It is filed as cell-based.
The test system of test [21] is MDA-MB-231. In words: Inhibition of TNFalpha-induced cell invasion in human MDA-MB-231 cells at 0.1 uM measured after 24 hrs in presence of TNFalpha by transwell assay. The format is functional, cell-based.
The target of test [22] is T1, Protein cereblon/Baculoviral IAP repeat-containing protein 3 (Homo sapiens). The test can be described thus: PROTAC activity at CRBN/cIAP2 in human MCF7 cells assessed as induction of cIAP2 degradation by western blot analysis. It is filed as cell-based.

Each structure is given as a SMILES string. Active and inactive are the calls of the source. The calls are words filed in the database; no cut-off is given here.

Sequence of Baculoviral IAP repeat-containing protein 2 (Homo sapiens) (Q13490 whole entry): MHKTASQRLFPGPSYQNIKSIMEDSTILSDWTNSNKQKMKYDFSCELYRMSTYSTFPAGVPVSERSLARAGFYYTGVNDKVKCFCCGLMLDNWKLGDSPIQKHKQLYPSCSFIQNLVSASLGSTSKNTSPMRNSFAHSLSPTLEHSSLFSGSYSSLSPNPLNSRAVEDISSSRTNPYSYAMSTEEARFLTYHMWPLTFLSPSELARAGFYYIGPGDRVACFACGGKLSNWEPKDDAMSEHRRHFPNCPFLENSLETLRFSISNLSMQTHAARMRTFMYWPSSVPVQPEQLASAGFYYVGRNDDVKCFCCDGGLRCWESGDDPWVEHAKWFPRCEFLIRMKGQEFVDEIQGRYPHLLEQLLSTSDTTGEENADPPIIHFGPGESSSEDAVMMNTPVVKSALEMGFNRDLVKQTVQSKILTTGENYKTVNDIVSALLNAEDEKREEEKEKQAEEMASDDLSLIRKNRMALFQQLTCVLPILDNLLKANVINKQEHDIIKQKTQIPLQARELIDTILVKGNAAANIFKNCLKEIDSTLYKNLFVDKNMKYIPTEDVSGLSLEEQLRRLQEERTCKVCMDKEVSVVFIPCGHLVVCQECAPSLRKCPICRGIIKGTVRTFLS
T2 sequence (P98170 whole entry, looked up): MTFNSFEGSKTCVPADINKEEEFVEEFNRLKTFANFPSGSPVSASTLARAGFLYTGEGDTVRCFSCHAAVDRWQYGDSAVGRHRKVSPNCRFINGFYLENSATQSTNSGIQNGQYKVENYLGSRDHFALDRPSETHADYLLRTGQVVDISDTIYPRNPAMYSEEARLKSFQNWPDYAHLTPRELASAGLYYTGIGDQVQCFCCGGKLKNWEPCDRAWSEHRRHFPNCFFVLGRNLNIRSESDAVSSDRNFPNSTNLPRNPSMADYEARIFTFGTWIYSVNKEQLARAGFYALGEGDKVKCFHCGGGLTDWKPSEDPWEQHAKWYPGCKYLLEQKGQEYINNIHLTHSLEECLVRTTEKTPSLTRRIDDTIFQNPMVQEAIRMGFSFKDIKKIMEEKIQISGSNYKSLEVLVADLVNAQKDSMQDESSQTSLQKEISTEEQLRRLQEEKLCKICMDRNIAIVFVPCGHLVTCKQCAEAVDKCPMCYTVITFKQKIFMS
T2 sequence (Q96SW2 whole entry, looked up): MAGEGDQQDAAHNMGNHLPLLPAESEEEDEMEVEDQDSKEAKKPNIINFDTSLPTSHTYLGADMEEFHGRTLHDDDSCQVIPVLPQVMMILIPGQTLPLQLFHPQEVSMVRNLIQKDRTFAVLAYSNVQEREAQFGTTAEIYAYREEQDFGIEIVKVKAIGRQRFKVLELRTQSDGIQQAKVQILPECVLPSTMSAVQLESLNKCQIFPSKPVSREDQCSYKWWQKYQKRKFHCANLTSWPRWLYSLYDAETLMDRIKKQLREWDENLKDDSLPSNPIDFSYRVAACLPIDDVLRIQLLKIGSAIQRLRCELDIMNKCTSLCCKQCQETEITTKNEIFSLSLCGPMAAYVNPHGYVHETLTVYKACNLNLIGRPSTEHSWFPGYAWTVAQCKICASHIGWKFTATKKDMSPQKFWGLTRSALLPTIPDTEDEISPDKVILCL
T3 sequence (P98170 whole entry, looked up): as the sequence (P98170 whole entry, looked up) above
T3 sequence (Q13489 whole entry, looked up): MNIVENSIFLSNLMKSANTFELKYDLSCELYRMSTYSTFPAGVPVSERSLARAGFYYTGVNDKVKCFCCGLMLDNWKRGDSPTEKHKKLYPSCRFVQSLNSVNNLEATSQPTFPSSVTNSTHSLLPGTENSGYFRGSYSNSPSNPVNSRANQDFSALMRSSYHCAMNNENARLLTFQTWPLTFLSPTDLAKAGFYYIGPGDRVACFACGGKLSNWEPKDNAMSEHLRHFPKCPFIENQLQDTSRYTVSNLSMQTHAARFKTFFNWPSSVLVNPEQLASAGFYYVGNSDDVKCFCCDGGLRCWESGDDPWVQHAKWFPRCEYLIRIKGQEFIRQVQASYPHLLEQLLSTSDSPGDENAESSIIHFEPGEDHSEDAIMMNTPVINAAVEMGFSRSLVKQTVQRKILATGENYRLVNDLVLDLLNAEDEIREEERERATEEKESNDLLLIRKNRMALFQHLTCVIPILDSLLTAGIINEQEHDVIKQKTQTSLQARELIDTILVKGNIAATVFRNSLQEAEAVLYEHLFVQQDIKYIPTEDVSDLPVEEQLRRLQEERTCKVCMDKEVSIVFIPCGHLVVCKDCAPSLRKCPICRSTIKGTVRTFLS
T3 sequence (Q13490 whole entry, looked up): as the sequence (Q13490 whole entry) above
T3 sequence (Q96SW2 whole entry, looked up): as the sequence (Q96SW2 whole entry, looked up) above
Sequence of Protein cereblon (Homo sapiens) (Q96SW2 whole entry): as the sequence (Q96SW2 whole entry, looked up) above
T1 sequence (Q13489 whole entry, looked up): as the sequence (Q13489 whole entry, looked up) above
T1 sequence (Q96SW2 whole entry, looked up): as the sequence (Q96SW2 whole entry, looked up) above
Sequence of Baculoviral IAP repeat-containing protein 3 (Homo sapiens) (Q13489 whole entry): as the sequence (Q13489 whole entry, looked up) above

As to `CN[C@@H](C)C(=O)N[C@H](C(=O)N1Cc2cc(OCCCCCNC(=O)C3CCN(c4cccc5c4C(=O)N(C4CCC(=O)NC4=O)C5=O)CC3)ccc2C[C@H]1C(=O)N[C@@H]1CCCc2ccccc21)C(C)(C)C` (some centres undefined), the Activity in test [1] was 93%; in [2], 99%; in test [4], 78%; in test [5], 90%; in test [6] it was 91%; in test [7] it was 91%. Moreover, the result in test [3] was inactive.

For `CN[C@@H](C)C(=O)N[C@H](C(=O)N1Cc2cc(OCCCCCCCCNC(=O)C3CCN(c4ccc5c(c4)C(=O)N(C4CCC(=O)NC4=O)C5=O)CC3)ccc2C[C@H]1C(=O)N[C@@H]1CCCc2ccccc21)C(C)(C)C` (some centres undefined), the Activity in test [1] worked out at 96%; in test [2], 98%; in test [4], 82%; in test [5], 99%; in [6] it was 95%; in test [7], 97%. Also, the result in test [3] was inactive.

`CNC(C)C(=O)NC(C(=O)N1Cc2cc(OCCCCCNc3ccc4c(c3)C(=O)N(C3CCC(=O)NC3=O)C4=O)ccc2C[C@H]1C(=O)NC1CCCc2ccccc21)C(C)(C)C` (single isomer, unassigned): the Activity is 97% in test [1]; 100% in [2]; 58% in test [4]; 98% in test [5]; 67% in test [6]; 98% in [7]. Also, the outcome in test [3] was inactive.

With `CN[C@@H](C)C(=O)N[C@H](C(=O)N1Cc2cc(OCCOCCNC(=O)C3CCN(c4ccc5c(c4)C(=O)N(C4CCC(=O)NC4=O)C5=O)CC3)ccc2C[C@H]1C(=O)N[C@@H]1CCCc2ccccc21)C(C)(C)C` (some centres undefined), the Activity in test [1] worked out at 94%; in [2], 99%; in test [4], 0%; in [5] it was 94%; in test [6], 0%; in test [7] it was 93%. For the same compound, in test [3], the outcome was inactive.

As for `CN[C@@H](C)C(=O)N[C@H](C(=O)N1Cc2cc(OCCCCCNC(=O)C3CN(c4ccc5c(c4)C(=O)N(C4CCC(=O)NC4=O)C5=O)C3)ccc2C[C@H]1C(=O)N[C@@H]1CCCc2ccccc21)C(C)(C)C` (some centres undefined), the Activity worked out at 92% in [1]; 100% in test [2]; 39% in test [4]; 100% in test [5]; 56% in test [6]; 89% in test [7]. Further, the result in test [3] was inactive.

Turning to `CN[C@@H](C)C(=O)N[C@H](C(=O)N1Cc2cc(OCCCNC(=O)C3CCN(c4ccc5c(c4)C(=O)N(C4CCC(=O)NC4=O)C5=O)CC3)ccc2C[C@H]1C(=O)N[C@@H]1CCCc2ccccc21)C(C)(C)C` (some centres undefined), the Activity came to 92% in test [1]; 97% in [2]; 13% in test [4]; 100% in [5]; 52% in [6]; 95% in test [7]. For the same compound, the outcome in test [3] was inactive.

Turning to `CN[C@@H](C)C(=O)N[C@H](C(=O)N1Cc2cc(OCCCCCNC(=O)COc3ccc4c(c3)C(=O)N(C3CCC(=O)NC3=O)C4=O)ccc2C[C@H]1C(=O)N[C@@H]1CCCc2ccccc21)C(C)(C)C` (some centres undefined), the Activity in [1] was found to be 89%; in test [2] it was 100%; in [4] it was 73%; in test [5], 100%; in [6] it was 83%; in test [7], 91%. In addition, the outcome in [3] was inactive.

On to `CN[C@@H](C)C(=O)N[C@H](C(=O)N1Cc2cc(OCCCCCNC(=O)CNc3ccc4c(c3)C(=O)N(C3CCC(=O)NC3=O)C4=O)ccc2C[C@H]1C(=O)N[C@@H]1CCCc2ccccc21)C(C)(C)C` (some centres undefined), for which the Activity worked out at 91% in test [1]; 100% in test [2]; 65% in test [4]; 100% in test [5]; 87% in test [6]; 92% in test [7]. Further, the outcome in test [3] was inactive.

With `CN[C@@H](C)C(=O)N[C@H](C(=O)N1Cc2cc(OCCCCCCCCNC(=O)C3CN(c4ccc5c(c4)C(=O)N(C4CCC(=O)N(C)C4=O)C5=O)C3)ccc2C[C@H]1C(=O)N[C@@H]1CCCc2ccccc21)C(C)(C)C` (some centres undefined), the outcome in test [8], in [12], in test [17] and in test [18] was inactive. Further, the result (in test [9]; in the test with SK-OV-3; in the test on MCF7 [16]; with MCF7 [19]; in test [20]) was Active. Besides, the Activity with MCF7 [10] worked out at 32%. Moreover, the inhibition entry in the test on MDA-MB-231 [11], in the test with MDA-MB-157 [13], in the test with MDA-MB-157 [15] and in the test with MDA-MB-231 [21] was “Active” each time. In addition, in the test with MCF7 [14], the concentration for 50% growth inhibition (GI50) came to 77.8 µM.

Consider `CN[C@@H](C)C(=O)N[C@H](C(=O)N1Cc2cc(O)ccc2C[C@H]1C(=O)N[C@@H]1CCCc2ccccc21)C(C)(C)C`, for which the Activity is 93% in test [1]; 100% in [2]; 31% with MCF7 [10]; 0% in [4]; 100% in test [5]; 0% in test [6]. This compound registered an Activity in test [7] of 95%. The outcome in test [3] was inactive. Also, the result (in the test on SK-OV-3; in [22]; in the test on MCF7 [16]; with MCF7 [19]; in test [20]) was Active. Further, in the test with MCF7 [14], the GI50 was > 500 µM.

Consider `CN[C@@H](C)C(=O)N[C@H](C(=O)N1Cc2cc(OCCCCCNC(=O)C3CCN(c4ccc5c(c4)C(=O)N(C4CCC(=O)NC4=O)C5=O)CC3)ccc2C[C@H]1C(=O)N[C@@H]1CCCc2ccccc21)C(C)(C)C` (some centres undefined), for which the Activity in [1] stood at 91%; in test [2], 97%; in test [4], 78%; in test [5], 100%; in test [6] it was 90%; in [7], 93%. The result in [3] was inactive.

With `CN[C@@H](C)C(=O)N[C@H](C(=O)N1Cc2cc(OCCCCCNc3cccc4c3C(=O)N(C3CCC(=O)NC3=O)C4=O)ccc2C[C@H]1C(=O)N[C@@H]1CCCc2ccccc21)C(C)(C)C` (some centres undefined), the Activity was 94% in [1]; 100% in [2]; 65% in test [4]; 100% in [5]; 81% in test [6]; 92% in test [7]. For the same compound, the result in [3] was inactive.
